According to article PMC2248166, “Quantitative peptide binding motifs for 19 human and mouse MHC class I molecules derived using positional scanning combinatorial peptide libraries” (Immunome Research, 2008):

Assays:
Format in all cases: binding
HLA B*5801 = HLA B*5801 (Homo sapiens, UniProt P01889, A329T/C349S/D201E/D98Y/E176V/E187L/E204Q/E69T/G107R/I218V/I90N/K202T/L105A/L119I/N104I/N87E/Q89R/Q94S/R106L/R155S/R180L/R86G/S101N/S121R/S35A/S48A/T118I/V127L/V306I/V36M/Y140S/Y91M)
HLA B*5401 = HLA B*5401 (Homo sapiens, UniProt P01889, A329T/C349S/D138N/D201E/E176V/E187T/E204Q/E69G/I76V/K202T/L119W/R155S/R180L/S121T/S35A/S48A/V127L/V306I/V36M/Y140L)
HLA B*1501 = HLA B*1501 (Homo sapiens, UniProt P01889, A329T/A93T/A95T/C349S/D201E/D98Y/E187L/E204Q/E69M/E70A/K202T/N87E/Q94N/R155S/R180W/S121R/S35A/S48A/V306I/V36M/Y140S/Y91S); assay: biochemical
HLA B*1503 = HLA B*1503 (Homo sapiens, UniProt P01889, A329T/A93T/A95T/C349S/D201E/D98Y/E187L/E204Q/K202T/N87E/Q94N/R155S/R180L/S121R/S35A/V306I/V36M/Y140S/Y91S); assay: biochemical
HLA B*0801 = HLA B*0801 (Homo sapiens, UniProt P01889, A93T/A95T/D138N/E176V/E187T/K202T/Q94N/R180D/S35A/V36M/Y33D/Y91F); assay: biochemical
HLA B*5802 = HLA B*5802 (Homo sapiens, UniProt P01889, A329T/C349S/D201E/D98Y/E176V/E187L/E204Q/E69T/G107R/I218V/I90N/K202T/L105A/N104I/N87E/Q89R/Q94S/R106L/R155S/R180L/R86G/S101N/S121W/S35A/S48A/V127L/V306I/V36M/Y140S/Y91M)
H-2 D^b = H-2 D^b (Mus musculus, UniProt P01899)
Sequence of H-2 D^b (P01887 21-119): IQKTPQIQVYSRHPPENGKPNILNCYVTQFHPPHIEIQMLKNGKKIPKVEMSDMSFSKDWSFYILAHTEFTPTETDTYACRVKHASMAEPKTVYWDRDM
Sequence of H-2 D^b (P01899 25-362): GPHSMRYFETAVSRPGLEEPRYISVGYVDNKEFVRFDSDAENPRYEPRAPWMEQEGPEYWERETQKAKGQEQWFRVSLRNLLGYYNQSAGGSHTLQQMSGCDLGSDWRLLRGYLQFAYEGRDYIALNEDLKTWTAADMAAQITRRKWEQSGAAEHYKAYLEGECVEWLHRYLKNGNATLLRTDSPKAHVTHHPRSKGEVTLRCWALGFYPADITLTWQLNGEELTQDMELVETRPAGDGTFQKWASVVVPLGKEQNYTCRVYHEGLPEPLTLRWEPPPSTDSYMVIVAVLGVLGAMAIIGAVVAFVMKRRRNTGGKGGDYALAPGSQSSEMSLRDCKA

HLA B*5101 = HLA B*5101 (Homo sapiens, UniProt P01889, A329T/A93T/A95T/C349S/D138N/D201E/D98Y/E187L/E204Q/E69T/G107R/I218V/K202T/L105A/L119W/N104I/Q94N/R106L/R155S/R180L/S101N/S121T/S35A/S48A/V306I/V36M/Y195H/Y91F)
HLA A*6802 = HLA A*6802 (Homo sapiens, UniProt P04439, A269V/D140Y/D185E/E176V/E277Q/E87N/F33Y/G231S/I121R/I166T/I218V/L180W/L300P/L318F/N151K/P208A/P217A/Q86R/R138H/R169H/S129P/T345S/V36M)
H-2 K^k = H-2 K^k (Mus musculus, UniProt P04223)
Sequence of H-2 K^k (P01887 21-119): as the sequence (P01887 21-119) above
Sequence of H-2 K^k (P04223 22-369): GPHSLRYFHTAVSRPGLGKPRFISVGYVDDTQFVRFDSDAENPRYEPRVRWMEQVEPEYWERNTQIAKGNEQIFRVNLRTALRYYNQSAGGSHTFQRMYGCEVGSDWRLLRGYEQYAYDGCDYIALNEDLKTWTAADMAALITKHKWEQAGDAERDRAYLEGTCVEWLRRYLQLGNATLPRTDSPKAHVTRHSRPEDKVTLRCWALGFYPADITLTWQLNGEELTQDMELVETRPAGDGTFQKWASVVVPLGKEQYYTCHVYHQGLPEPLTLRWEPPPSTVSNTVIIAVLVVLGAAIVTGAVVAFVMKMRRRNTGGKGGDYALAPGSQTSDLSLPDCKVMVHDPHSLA

HLA A*3001 = HLA A*3001 (Homo sapiens, UniProt P04439, D140H/D185E/E176W/F33S/G80R/H175R/K168Q/R138E/R41S); assay: biochemical
HLA B*3501 = HLA B*3501 (Homo sapiens, UniProt P01889, A329T/A93T/A95T/C349S/D201E/D98Y/E176V/E187L/E204Q/E69T/I218V/K202T/L119I/Q94N/R155S/R180L/S121R/S35A/S48A/T118I/V127L/V306I/V36M/Y140S/Y91F)
H-2 D^d = H-2 D^d (Mus musculus, UniProt P01900)
Sequence of H-2 D^d (P01900 whole entry, looked up): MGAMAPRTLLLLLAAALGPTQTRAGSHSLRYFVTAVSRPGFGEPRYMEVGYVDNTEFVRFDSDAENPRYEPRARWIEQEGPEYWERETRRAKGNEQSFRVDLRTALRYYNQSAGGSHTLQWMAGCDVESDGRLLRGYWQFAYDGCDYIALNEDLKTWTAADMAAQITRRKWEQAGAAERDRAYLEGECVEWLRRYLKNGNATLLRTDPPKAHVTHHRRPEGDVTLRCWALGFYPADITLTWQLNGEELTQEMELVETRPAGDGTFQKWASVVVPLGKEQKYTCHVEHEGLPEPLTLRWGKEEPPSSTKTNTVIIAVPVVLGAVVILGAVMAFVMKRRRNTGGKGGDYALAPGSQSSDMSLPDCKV

H-2 K^d = H-2 K^d (Mus musculus, UniProt P01902)
Sequence of H-2 K^d (P01887 21-119): as the sequence (P01887 21-119) above
Sequence of H-2 K^d (P01902 22-368): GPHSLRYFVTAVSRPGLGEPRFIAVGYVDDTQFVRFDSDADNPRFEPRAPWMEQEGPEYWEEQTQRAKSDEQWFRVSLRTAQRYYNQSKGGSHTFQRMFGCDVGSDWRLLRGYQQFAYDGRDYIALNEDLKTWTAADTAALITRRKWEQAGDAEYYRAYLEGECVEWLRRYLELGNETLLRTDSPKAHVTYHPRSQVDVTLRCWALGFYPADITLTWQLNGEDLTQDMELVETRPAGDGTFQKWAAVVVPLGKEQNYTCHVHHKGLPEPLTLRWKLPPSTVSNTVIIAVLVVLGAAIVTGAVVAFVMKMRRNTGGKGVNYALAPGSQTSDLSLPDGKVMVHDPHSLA

HLA A*3201 = HLA A*3201 (Homo sapiens, UniProt P04439, A270S/D101S/D185E/E176V/E277Q/F133L/G103R/G107R/G231S/H175R/I121M/I218V/I322F/K168Q/L105A/L300P/L318F/M331R/P208A/P217A/Q94H/R106L/R138Q/S129P/T104I/T323A/T345S/V100E/V321M/V358M); assay: biochemical
HLA B*5301 = HLA B*5301 (Homo sapiens, UniProt P01889, A329T/A93T/A95T/C349S/D201E/D98Y/E176V/E187L/E204Q/E69T/G107R/I218V/K202T/L105A/L119I/N104I/Q94N/R106L/R155S/R180L/S101N/S121R/S35A/S48A/T118I/V127L/V306I/V36M/Y140S/Y91F)

XXXXXXQXX [3064.0134]
Normalized average relative binding affinity(ARB) (HLA B*5801): 0.23 | Normalized average relative binding affinity(ARB) (HLA B*5401): 1.0 | Normalized average relative binding affinity(ARB) (HLA B*1501): 0.51 | Normalized average relative binding affinity(ARB) (HLA B*1503): 0.95 | Normalized average relative binding affinity(ARB) (HLA B*0801): 0.79 | Normalized average relative binding affinity(ARB) (HLA B*5802): 0.22 | Normalized average relative binding affinity(ARB) (H-2 D^b): 0.84 | Normalized average relative binding affinity(ARB) (HLA B*5101): 0.50 | Normalized average relative binding affinity(ARB) (HLA A*6802): 0.45 | Normalized average relative binding affinity(ARB) (H-2 K^k): 0.016 | Normalized average relative binding affinity(ARB) (HLA A*3001): 0.29 | Normalized average relative binding affinity(ARB) (HLA B*3501): 0.36 | Normalized average relative binding affinity(ARB) (H-2 D^d): 0.057 | Normalized average relative binding affinity(ARB) (H-2 K^d): 0.25 | Normalized average relative binding affinity(ARB) (HLA A*3201): 0.33 | Normalized average relative binding affinity(ARB) (HLA B*5301): 1.0

XXXXXXRXX [3064.0135]
Normalized average relative binding affinity(ARB) (HLA B*5801): 0.075 | Normalized average relative binding affinity(ARB) (HLA B*5401): 0.13 | Normalized average relative binding affinity(ARB) (HLA B*1501): 0.22 | Normalized average relative binding affinity(ARB) (HLA B*1503): 0.21 | Normalized average relative binding affinity(ARB) (HLA B*0801): 0.50 | Normalized average relative binding affinity(ARB) (HLA B*5802): 0.21 | Normalized average relative binding affinity(ARB) (H-2 D^b): 0.15 | Normalized average relative binding affinity(ARB) (HLA B*5101): 0.57 | Normalized average relative binding affinity(ARB) (HLA A*6802): 0.11 | Normalized average relative binding affinity(ARB) (H-2 K^k): 0.21 | Normalized average relative binding affinity(ARB) (HLA A*3001): 0.085 | Normalized average relative binding affinity(ARB) (HLA B*3501): 0.16 | Normalized average relative binding affinity(ARB) (H-2 D^d): 0.013 | Normalized average relative binding affinity(ARB) (H-2 K^d): 0.11 | Normalized average relative binding affinity(ARB) (HLA A*3201): 0.10 | Normalized average relative binding affinity(ARB) (HLA B*5301): 0.25

XXXXXXSXX [3064.0136]
Normalized average relative binding affinity(ARB) (HLA B*5801): 0.14 | Normalized average relative binding affinity(ARB) (HLA B*5401): 0.098 | Normalized average relative binding affinity(ARB) (HLA B*1501): 0.65 | Normalized average relative binding affinity(ARB) (HLA B*1503): 0.32 | Normalized average relative binding affinity(ARB) (HLA B*0801): 0.35 | Normalized average relative binding affinity(ARB) (HLA B*5802): 0.044 | Normalized average relative binding affinity(ARB) (H-2 D^b): 0.34 | Normalized average relative binding affinity(ARB) (HLA B*5101): 0.51 | Normalized average relative binding affinity(ARB) (HLA A*6802): 0.40 | Normalized average relative binding affinity(ARB) (H-2 K^k): 0.16 | Normalized average relative binding affinity(ARB) (HLA A*3001): 0.042 | Normalized average relative binding affinity(ARB) (HLA B*3501): 0.22 | Normalized average relative binding affinity(ARB) (H-2 D^d): 0.038 | Normalized average relative binding affinity(ARB) (H-2 K^d): 0.92 | Normalized average relative binding affinity(ARB) (HLA A*3201): 0.14 | Normalized average relative binding affinity(ARB) (HLA B*5301): 0.087

XXXXXXTXX [3064.0137]
Normalized average relative binding affinity(ARB) (HLA B*5801): 0.28 | Normalized average relative binding affinity(ARB) (HLA B*5401): 0.33 | Normalized average relative binding affinity(ARB) (HLA B*1501): 0.49 | Normalized average relative binding affinity(ARB) (HLA B*1503): 0.16 | Normalized average relative binding affinity(ARB) (HLA B*0801): 0.46 | Normalized average relative binding affinity(ARB) (HLA B*5802): 0.057 | Normalized average relative binding affinity(ARB) (H-2 D^b): 0.67 | Normalized average relative binding affinity(ARB) (HLA B*5101): 0.58 | Normalized average relative binding affinity(ARB) (HLA A*6802): 0.60 | Normalized average relative binding affinity(ARB) (H-2 K^k): 0.061 | Normalized average relative binding affinity(ARB) (HLA A*3001): 0.11 | Normalized average relative binding affinity(ARB) (HLA B*3501): 0.27 | Normalized average relative binding affinity(ARB) (H-2 D^d): 0.029 | Normalized average relative binding affinity(ARB) (H-2 K^d): 1.0 | Normalized average relative binding affinity(ARB) (HLA A*3201): 0.14 | Normalized average relative binding affinity(ARB) (HLA B*5301): 0.081

XXXXXXVXX [3064.0138]
Normalized average relative binding affinity(ARB) (HLA B*5801): 0.53 | Normalized average relative binding affinity(ARB) (HLA B*5401): 0.77 | Normalized average relative binding affinity(ARB) (HLA B*1501): 0.56 | Normalized average relative binding affinity(ARB) (HLA B*1503): 0.19 | Normalized average relative binding affinity(ARB) (HLA B*0801): 0.55 | Normalized average relative binding affinity(ARB) (HLA B*5802): 0.073 | Normalized average relative binding affinity(ARB) (H-2 D^b): 0.57 | Normalized average relative binding affinity(ARB) (HLA B*5101): 0.57 | Normalized average relative binding affinity(ARB) (HLA A*6802): 0.80 | Normalized average relative binding affinity(ARB) (H-2 K^k): 0.079 | Normalized average relative binding affinity(ARB) (HLA A*3001): 0.19 | Normalized average relative binding affinity(ARB) (HLA B*3501): 0.57 | Normalized average relative binding affinity(ARB) (H-2 D^d): 0.045 | Normalized average relative binding affinity(ARB) (H-2 K^d): 0.13 | Normalized average relative binding affinity(ARB) (HLA A*3201): 1.0 | Normalized average relative binding affinity(ARB) (HLA B*5301): 0.32

XXXXXXWXX [3064.0139]
Normalized average relative binding affinity(ARB) (HLA B*5801): 0.79 | Normalized average relative binding affinity(ARB) (HLA B*5401): 0.22 | Normalized average relative binding affinity(ARB) (HLA B*1501): 0.31 | Normalized average relative binding affinity(ARB) (HLA B*1503): 0.15 | Normalized average relative binding affinity(ARB) (HLA B*0801): 0.53 | Normalized average relative binding affinity(ARB) (HLA B*5802): 0.18 | Normalized average relative binding affinity(ARB) (H-2 D^b): 0.31 | Normalized average relative binding affinity(ARB) (HLA B*5101): 0.91 | Normalized average relative binding affinity(ARB) (HLA A*6802): 1.0 | Normalized average relative binding affinity(ARB) (H-2 K^k): 0.064 | Normalized average relative binding affinity(ARB) (HLA A*3001): 0.16 | Normalized average relative binding affinity(ARB) (HLA B*3501): 1.0 | Normalized average relative binding affinity(ARB) (H-2 D^d): 0.044 | Normalized average relative binding affinity(ARB) (H-2 K^d): 0.056 | Normalized average relative binding affinity(ARB) (HLA A*3201): 0.48 | Normalized average relative binding affinity(ARB) (HLA B*5301): 0.31

XXXXXXXAX [3064.0141]
Normalized average relative binding affinity(ARB) (HLA B*5801): 0.14 | Normalized average relative binding affinity(ARB) (HLA B*5401): 0.50 | Normalized average relative binding affinity(ARB) (HLA B*1501): 0.36 | Normalized average relative binding affinity(ARB) (HLA B*1503): 0.27 | Normalized average relative binding affinity(ARB) (HLA B*0801): 0.95 | Normalized average relative binding affinity(ARB) (HLA B*5802): 0.31 | Normalized average relative binding affinity(ARB) (H-2 D^b): 0.50 | Normalized average relative binding affinity(ARB) (HLA B*5101): 0.52 | Normalized average relative binding affinity(ARB) (HLA A*6802): 1.0 | Normalized average relative binding affinity(ARB) (H-2 K^k): 0.82 | Normalized average relative binding affinity(ARB) (HLA A*3001): 0.53 | Normalized average relative binding affinity(ARB) (HLA B*3501): 1.0 | Normalized average relative binding affinity(ARB) (H-2 D^d): 0.93 | Normalized average relative binding affinity(ARB) (H-2 K^d): 1.0 | Normalized average relative binding affinity(ARB) (HLA A*3201): 0.99 | Normalized average relative binding affinity(ARB) (HLA B*5301): 0.80

XXXXXXXCX [3064.0142]
Normalized average relative binding affinity(ARB) (HLA B*5801): 0.18 | Normalized average relative binding affinity(ARB) (HLA B*5401): 0.74 | Normalized average relative binding affinity(ARB) (HLA B*1501): 0.18 | Normalized average relative binding affinity(ARB) (HLA B*1503): 0.11 | Normalized average relative binding affinity(ARB) (HLA B*0801): 0.22 | Normalized average relative binding affinity(ARB) (HLA B*5802): 0.21 | Normalized average relative binding affinity(ARB) (H-2 D^b): 0.12 | Normalized average relative binding affinity(ARB) (HLA B*5101): 0.38 | Normalized average relative binding affinity(ARB) (HLA A*6802): 0.19 | Normalized average relative binding affinity(ARB) (H-2 K^k): 0.37 | Normalized average relative binding affinity(ARB) (HLA A*3001): 0.11 | Normalized average relative binding affinity(ARB) (HLA B*3501): 0.087 | Normalized average relative binding affinity(ARB) (H-2 D^d): 0.78 | Normalized average relative binding affinity(ARB) (H-2 K^d): 0.28 | Normalized average relative binding affinity(ARB) (HLA A*3201): 0.11 | Normalized average relative binding affinity(ARB) (HLA B*5301): 0.078
